# From patent US8906911B2, “Chemokine receptor antagonists” (AbbVie Inc., priority 2012, dated 2014)
# pIC50, pKi: −log10 of the molar value. Where two headings read alike, the source gives them in different places.
# How the values were obtained:
# [1] = biological target: T1, human CCR2B (Homo sapiens (Human), UniProt P41597); test: Inhibition of [125I]-labeled MCP-1 binding to hCCR2B (radioligand binding in CHO cells)
# Excerpt: (§1) CHO cells expressing human CCR2B were generated as follows. cDNA for human CCR2B (cloned from human blood) was cloned into plasmid pcDNA3.1 (from Invitrogen). The resulting plasmids were separately transfected into CHO cells expressing human Gα16 (from Molecular Devices). […] CHO cells expressing rat CCR2 were generated as follows. cDNA for rat CCR2 (cloned from rat macrophage) was cloned into plasmid pEF-flag (from Chinese Academy of Science). The resulting plasmids were transfected into CHO cells expressing human Gα16 (from […]).
# Inhibition of [^125I]-Labeled MCP-1 Binding to hCCR2B
# Radioligand binding assays were performed in CHO cells expressing human CCR2B and Gα16 coupling protein. All compounds were dissolved in DMSO and assays run at a final DMSO concentration of 0.5% (v/v). [^125I]-labeled human MCP-1 was purchased from PerkinElmer. Unlabelled human MCP-1 was purchased from PeproTech.
# Compounds were serially diluted in DMSO before diluting into assay buffer (25 mM HEPES, pH 7.4, 5 mM MgCl2, 1 mM CaCl2, 0.5% BSA) with cryo preserved CHO cells expressing human CCR2B and the Gα16 coupling protein (30×10^3/well) and [^125I]-MCP-1 (50 pM). The reaction was incubated at room temperature for 90 minutes before transferring to GF/C filter membrane (PerkinElmer) pre-treated with 0.3% polyethyleneimine for 2 hours at 4° C. The filter membrane was washed six times with ice cold wash buffer (25 mM HEPES, pH 7.4, 5 mM MgCl2, 1 mM CaCl2, 500 mM NaCl, 0.01% (m/v) azide), dried, and sealed in a RLB sample bag (Agilent Technologies) before adding 5.0 mL Microscint 20 to each bag. Membrane was counted on Microbeta counter where background binding was determined by the presence of 100 nM MCP-1 and control total binding was determined by addition of DMSO in place of the test compound. The radioactivity values (cpm) were used to calculate the percent inhibition at a given compound concentration and the data fit to a sigmoidal curve in a semi-log plot to determine IC50 values. The corresponding Ki value is calculated as follows:
# Ki=IC50/(1+[radioligand]/Kd), where [radioligand] is the concentration of the label and Kd (dissociation constant) is determined in saturation experiment with different concentrations of labeled MCP-1.
# [2] = biological target: rat CCR2 (Rattus norvegicus (Rat), UniProt O55193); test: Inhibition of native agonist (rat MCP-1)-induced intracellular calcium release, calcium flux assay in CHO cells expressing rat CCR2 and Gα16; type: cell-based; conditions: read-out: rCCR2 Kb
# Excerpt: as §1
# (§2) Inhibition of Native Agonist-Induced Intracellular Calcium Release in Cells Expressing hCCR2B or rCCR2
# (§3) Calcium flux assays were performed in CHO cells expressing human CCR2B and Gα16 coupling protein, or rat CCR2 and Gα16 coupling protein. All compounds were dissolved in DMSO and assays run at a final DMSO concentration of 0.25% (v/v). Human MCP-1 was purchased from PeproTech and used at a final assay concentration of 2 nM, while rat MCP-1 was purchased from R&D and used at a final assay concentration of 4 nM. Assays with cells expressing human CCR2B were performed with human MCP-1, while assays with cells expressing rat CCR2 were performed with rat MCP-1.
# (§4) Briefly, cells were cultured overnight in a microtiter plate at 8000 per well. The next day, the resultant adherent cells were incubated in assay buffer (20 mM HEPES, pH 7.4, 0.1% bovine serum albumin, and 2.5 mM probenocid in Hank's Buffered Saline Solution) containing Calcium 4 dye (Molecular Probes) at 37° C. for 60 minutes. Calcium flux assays were performed on a FLIPR^Tetra instrument (Molecular Devices) by adding compound to the cells followed by addition of native agonist and measuring the change in fluorescence as a function of time. Maximal and minimal values for fluorescence were determined using native agonist (2 nM MCP-1) for human or rat CCR2, or buffer addition, respectively. Fluorescence values were used to calculate the percent inhibition at a given compound concentration and the data fit to a sigmoidal curve in a semi-log plot to determine IC50 values. The Kb value is calculated as Kb=IC50/(1+[agonist]/EC50), where [agonist] is the concentration of agonist used and EC50 is the agonist potency determined in the previous experiments. Mean Kb values and IC50 of the compounds assayed are reported in Table 2 and Table 3 respectively.
# [3] = biological target: T1, human CCR2B; test: Inhibition of native agonist (human MCP-1)-induced intracellular calcium release, calcium flux assay in CHO cells expressing human CCR2B and Gα16; type: cell-based; conditions: for pIC50: read-out: hCCR2B IC50; for Kb: read-out: hCCR2B Kb
# Excerpt: as §1, §2, §3, §4
# [4] = mean Ki, [125I]-MCP-1 50 pM, CHO cells expressing human CCR2B and Gα16
# Chain of rat CCR2 (O55193 whole entry): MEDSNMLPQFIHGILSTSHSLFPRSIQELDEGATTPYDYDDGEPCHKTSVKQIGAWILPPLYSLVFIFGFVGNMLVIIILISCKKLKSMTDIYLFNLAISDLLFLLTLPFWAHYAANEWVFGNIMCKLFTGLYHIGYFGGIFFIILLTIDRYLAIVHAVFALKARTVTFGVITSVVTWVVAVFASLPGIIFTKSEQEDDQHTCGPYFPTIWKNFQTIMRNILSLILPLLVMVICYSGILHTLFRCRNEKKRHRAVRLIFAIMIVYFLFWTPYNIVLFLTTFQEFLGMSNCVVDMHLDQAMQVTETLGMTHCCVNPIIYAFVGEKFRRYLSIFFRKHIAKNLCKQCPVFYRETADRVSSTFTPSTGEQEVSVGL
# T1 sequence (P41597 other isoform, or with tags, fused parts or gaps): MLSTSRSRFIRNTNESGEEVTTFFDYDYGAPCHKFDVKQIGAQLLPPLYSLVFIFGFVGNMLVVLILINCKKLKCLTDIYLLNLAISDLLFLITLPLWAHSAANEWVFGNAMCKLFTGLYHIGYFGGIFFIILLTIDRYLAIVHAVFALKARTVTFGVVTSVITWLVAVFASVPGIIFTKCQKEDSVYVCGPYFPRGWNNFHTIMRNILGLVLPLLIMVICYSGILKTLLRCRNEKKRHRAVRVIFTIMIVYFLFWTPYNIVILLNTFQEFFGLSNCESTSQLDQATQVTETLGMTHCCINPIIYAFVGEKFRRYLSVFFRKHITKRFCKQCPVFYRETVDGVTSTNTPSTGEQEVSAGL
Compound,Kb [2] [µM],"pIC50 ([3]; calcium flux, human MCP-1 2 nM)",Kb [3] [µM],"pKi [1, 4]",pKi [1],pIC50 [3]
"CO[C@@H]1COCC[C@@H]1N[C@@H]1C[C@H]2CCC[C@@]2(C(=O)N2C[C@@H]3C[C@H]2CN3c2ccc(C#N)c(C(F)(F)F)c2)C1 (racemic) [Example 39, 1,5-anhydro-3-{[(2R,3aR,6aR)-3a-({(1S,4S)-5-[4-cyano-3-(trifluoromethyl)phenyl]-2,5-diazabicyclo[2.2.1]hept-2-yl}carbonyl)octahydropentalen-2-yl]amino}-2,3-dideoxy-4-O-methyl-D-erythro-pentitol]",0.003,7.26,0.014,,7.18,
"CO[C@@H]1COCC[C@H]1N[C@@H]1C[C@H]2CCC[C@@]2(C(=O)N2C[C@@H]3C[C@H]2CN3c2cc(C(F)(F)F)ccn2)C1 [Example 1, 1,5-anhydro-2,3-dideoxy-4-O-methyl-3-{[(2R,3aR,6aR)-3a-({(1S,4S)-5-[4-(trifluoromethyl)pyridin-2-yl]-2,5-diazabicyclo[2.2.1]hept-2-yl}carbonyl)octahydropentalen-2-yl]amino}-D-threo-pentitol]",0.023,7.26,0.014,7.49,,
"CO[C@@H]1COCC[C@@H]1N[C@@H]1C[C@H]2CCC[C@@]2(C(=O)N2C[C@@H]3C[C@H]2CN3c2ccc(F)c(C(F)(F)F)c2)C1 [Example 15, 1,5-anhydro-2,3-dideoxy-3-{[(2R,3aR,6aR)-3a-({(1S,4S)-5-[4-fluoro-3-(trifluoromethyl)phenyl]-2,5-diazabicyclo[2.2.1]hept-2-yl}carbonyl)octahydropentalen-2-yl]amino}-4-O-methyl-D-erythro-pentitol]",0.003,,0.009,7.54,,7.46
"CO[C@@H]1COCC[C@@H]1N[C@@H]1C[C@H]2CCC[C@@]2(C(=O)N2C[C@@H]3C[C@H]2CN3c2cc(C(F)(F)F)ccc2C)C1 [Example 16, 1,5-anhydro-2,3-dideoxy-4-O-methyl-3-{[(2R,3aR,6aR)-3a-({(1S,4S)-5-[2-methyl-5-(trifluoromethyl)phenyl]-2,5-diazabicyclo[2.2.1]hept-2-yl}carbonyl)octahydropentalen-2-yl]amino}-D-erythro-pentitol]",0.007,,0.026,6.70,,6.97
"CO[C@@H]1COCC[C@@H]1N[C@@H]1C[C@H]2CCC[C@@]2(C(=O)N2C[C@@H]3C[C@H]2CN3c2cccc(C(F)(F)F)c2)C1 [Example 18, 1,5-anhydro-2,3-dideoxy-4-O-methyl-3-{[(2R,3aR,6aR)-3a-({(1S,4S)-5-[3-(trifluoromethyl)phenyl]-2,5-diazabicyclo[2.2.1]hept-2-yl}carbonyl)octahydropentalen-2-yl]amino}-D-erythro-pentitol]",0.006,7.12,0.019,6.68,,
"CO[C@@H]1COCC[C@@H]1N[C@@H]1C[C@H]2CCC[C@@]2(C(=O)N2C[C@@H]3C[C@H]2CN3c2ccc(C)c(C(F)(F)F)c2)C1 [Example 19, 1,5-anhydro-2,3-dideoxy-4-O-methyl-3-{[(2R,3aR,6aR)-3a-({(1S,4S)-5-[4-methyl-3-(trifluoromethyl)phenyl]-2,5-diazabicyclo[2.2.1]hept-2-yl}carbonyl)octahydropentalen-2-yl]amino}-D-erythro-pentitol]",0.012,6.63,0.057,6.51,,
"CO[C@@H]1COCC[C@@H]1N[C@@H]1C[C@H]2CCC[C@@]2(C(=O)N2C[C@@H]3C[C@H]2CN3c2cccc(C(F)(F)F)n2)C1 [Example 22, 1,5-anhydro-2,3-dideoxy-4-O-methyl-3-{[(2R,3aR,6aR)-3a-({(1S,4S)-5-[6-(trifluoromethyl)pyridin-2-yl]-2,5-diazabicyclo[2.2.1]hept-2-yl}carbonyl)octahydropentalen-2-yl]amino}-D-erythro-pentitol]",0.012,6.82,0.038,6.92,,
"CO[C@@H]1COCC[C@@H]1N[C@@H]1C[C@H]2CCC[C@@]2(C(=O)N2C[C@@H]3C[C@H]2CN3c2cc(F)cc(C(F)(F)F)c2)C1 [Example 25, 1,5-anhydro-2,3-dideoxy-3-{[(2R,3aR,6aR)-3a-({(1S,4S)-5-[3-fluoro-5-(trifluoromethyl)phenyl]-2,5-diazabicyclo[2.2.1]hept-2-yl}carbonyl)octahydropentalen-2-yl]amino}-4-O-methyl-D-erythro-pentitol]",0.005,7.04,0.023,6.57,,
"CO[C@@H]1COCC[C@@H]1N[C@@H]1C[C@H]2CCC[C@@]2(C(=O)N2C[C@@H]3C[C@H]2CN3c2ccnc(C(F)(F)F)n2)C1 [Example 27, 1,5-anhydro-2,3-dideoxy-4-O-methyl-3-{[(2R,3aR,6aR)-3a-({(1S,4S)-5-[2-(trifluoromethyl)pyrimidin-4-yl]-2,5-diazabicyclo[2.2.1]hept-2-yl}carbonyl)octahydropentalen-2-yl]amino}-D-erythro-pentitol]",0.019,6.41,0.096,6.35,,

# Second part, led by results:
Kb [2] [µM],"pIC50 ([3]; calcium flux, human MCP-1 2 nM)",Kb [3] [µM],"pKi [1, 4]",Compound,pKi [1],pIC50 [3]
0.012,7.12,0.019,7.22,"CO[C@@H]1COCC[C@@H]1N[C@@H]1C[C@H]2CCC[C@@]2(C(=O)N2C[C@@H]3C[C@H]2CN3c2cc(C(F)(F)F)ccn2)C1 [Example 2, 1,5-anhydro-2,3-dideoxy-4-O-methyl-3-{[(2R,3aR,6aR)-3a-({(1S,4S)-5-[4-(trifluoromethyl)pyridin-2-yl]-2,5-diazabicyclo[2.2.1]hept-2-yl}carbonyl)octahydropentalen-2-yl]amino}-D-erythro-pentitol]",,
0.01,7.18,0.016,7.52,"CO[C@@H]1COCC[C@@H]1N(C)[C@@H]1C[C@H]2CCC[C@@]2(C(=O)N2C[C@@H]3C[C@H]2CN3c2cc(C(F)(F)F)ccn2)C1 [Example 7, 1,5-anhydro-2,3-dideoxy-4-O-methyl-3-{methyl[(2R,3aR,6aR)-3a-({(1S,4S)-5-[4-(trifluoromethyl)pyridin-2-yl]-2,5-diazabicyclo[2.2.1]hept-2-yl}carbonyl)octahydropentalen-2-yl]amino}-D-erythro-pentitol]",,
0.018,6.74,0.045,6.95,"CO[C@@H]1COCC[C@@H]1N[C@@H]1C[C@H]2CCC[C@@]2(C(=O)N2C[C@@H]3C[C@H]2CN3c2ccc(F)c(Cl)c2)C1 [Example 20, 1,5-anhydro-3-{[(2R,3aR,6aR)-3a-{[(1S,4S)-5-(3-chloro-4-fluorophenyl)-2,5-diazabicyclo[2.2.1]hept-2-yl]carbonyl}octahydropentalen-2-yl]amino}-2,3-dideoxy-4-O-methyl-D-erythro-pentitol]",,
0.022,6.22,0.147,6.10,"CO[C@@H]1COCC[C@@H]1N[C@@H]1C[C@H]2CCC[C@@]2(C(=O)N2C[C@@H]3C[C@H]2CN3c2ccnc(C(F)(F)F)c2)C1 [Example 26, 1,5-anhydro-2,3-dideoxy-4-O-methyl-3-{[(2R,3aR,6aR)-3a-({(1S,4S)-5-[2-(trifluoromethyl)pyridin-4-yl]-2,5-diazabicyclo[2.2.1]hept-2-yl}carbonyl)octahydropentalen-2-yl]amino}-D-erythro-pentitol]",,
